Data set [1] can be described thus: Metabolic stability test in liver S9. Format: in vitro ADME. Conditions: pH 7.4, human liver S9 2 mg protein/mL, LC/MS; for remaining at 10 min: unchanged form after 10 minutes at 37°C, read-out: Remaining rate in human liver S9 (%/10min); for remaining at 1 h: unchanged form after 60 minutes at 37°C, read-out: Remaining rate in human liver S9 (%/60min). The procedure, abridged:
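Compound from DMSO solution was incubated at 37°C with human liver S9 (final 2 mg protein/mL) in 100 mM potassium phosphate pH 7.4 with an NADPH-regenerating system for 0, 10 and 60 minutes. Reactions were stopped with acetonitrile/0.1% formic acid. Unchanged compound was measured by LC/MS as remaining rate (%) relative to zero time.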

Data set [2] in a line: Metabolic stability test in plasma. Format: in vitro ADME, human. Conditions: LC/MS; for remaining at 10 min: unchanged form after 10 minutes at 37°C in human plasma, read-out: Remaining rate in human plasma (%/10min); for remaining at 1 h: unchanged form after 60 minutes at 37°C in human plasma, read-out: Remaining rate in human plasma (%/60min). The procedure, abridged: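 Remaining rate (%) versus zero time was derived from LC/MS measurement of parent compound after centrifugation. Plasma from human, mouse and hamster received DMSO-dissolved compound and was held at 37°C for 0, 10 or 60 minutes before acetonitrile containing formic acid (final 0.1%) stopped the reaction.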

Data set [3] can be described thus: Stability test in buffer (pH 7.4). It counts as physicochemical. Conditions: phosphate buffer/acetonitrile 7:3, 100 mM potassium phosphate buffer (pH 7.4) and acetonitrile 7:3 (v/v), LC/MS; for remaining at 10 min: 10 minutes at 37°C, read-out: Buf. remaining rate (%/10min); for remaining at 1 h: 60 minutes at 37°C, read-out: Buf. remaining rate (%/60min). In a few lines: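 Parent compound measured by LC/MS after 0, 10 or 60 min at 37°C in a 7:3 (v/v) mix of 100 mM potassium phosphate buffer and acetonitrile, with the reaction stopped by acetonitrile plus formic acid (final 0.1%). Percentage remaining is expressed relative to the zero-time amount.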

For the compound `COC(=O)c1ccc(OC(=O)CCCc2ccc(NC(=O)c3ccccc3-c3ccc(C(F)(F)F)cc3)c(C(=O)N(C)C)c2)cc1Cl` [Compound 1-18, 2-chloro-4-(4-{3-dimethylcarbamoyl-4-[(4'-trifluoromethylbiphenyl-2-carbonyl)amino]phenyl}butyryloxy)benzoic acid methyl ester], the results for the remaining at 10 min in data set [1], in data set [2] and in data set [3] were 0%, 0% and 101%, respectively. The remaining at 1 h in data set [1] was 0%; in data set [2], 0%; in data set [3], 98%.
Take `COC(=O)c1ccc(OC(=O)CN(C)Cc2ccc(NC(=O)c3ccccc3-c3ccc(C(F)(F)F)cc3)c(C(=O)N(C)C)c2)cc1` [Compound 2-1, 4-[2-({3-dimethylcarbamoyl-4-[(4'-trifluoromethylbiphenyl-2-carbonyl)amino]benzyl}methylamino)acetoxy]benzoic acid methyl ester]: the results for the remaining at 10 min in data set [1], in data set [2] and in data set [3] were 0%, 47% and 95%, respectively. In addition, the remaining at 1 h amounted to 0% in data set [1], 0% in data set [2] and 95% in data set [3].
For the compound `CC(C)OC(=O)c1ccc(OC(=O)CCCc2ccc(NC(=O)c3ccncc3-c3ccc(C(F)(F)F)cc3)c(C(=O)N(C)C)c2)cc1` [Compound 1-29, 4-[4-(3-dimethylcarbamoyl-4-{[3-(4-trifluoromethylphenyl)pyridine-4-carbonyl]amino}phenyl)butyryloxy]benzoic acid isopropyl ester], the remaining at 10 min is 1% in data set [1], 41% in data set [2] and 98% in data set [3]. The remaining at 1 h came to 0% in data set [1], 0% in data set [2] and 98% in data set [3].
On to `CC(=O)c1ccc(OC(=O)CCCc2ccc(NC(=O)c3ccccc3-c3ccc(C(F)(F)F)cc3)c(C(=O)N(C)C)c2)cc1` [Compound 1-22, 4-(3-dimethylcarbamoyl-4-[(4'-trifluoromethylbiphenyl-2-carbonyl)amino]phenyl}butyric acid 4-acetylphenyl ester], for which the remaining at 10 min was 0% in data set [1], 8% in data set [2] and 96% in data set [3]. For the same compound, the remaining at 1 h in data set [1] was determined as 0%; in data set [2] it was 0%; in data set [3], 98%.
With `COC(=O)c1ccc(OC(=O)CCCc2ccc(NC(=O)c3cccnc3-c3ccc(C(F)(F)F)cc3)c(C(=O)N(C)C)c2)cc1` [Compound 1-28, 4-[4-(3-dimethylcarbamoyl-4-{[2-(4-trifluoromethylphenyl)pyridine-3-carbonyl]amino}phenyl)butyryloxy]benzoic acid methyl ester], the remaining at 10 min amounted to 0% in data set [1], 0% in data set [2] and 101% in data set [3]. In addition, the results for the remaining at 1 h in data set [1], in data set [2] and in data set [3] were 0%, 0% and 102%, respectively.
For the compound `CCCC(=O)c1ccc(OC(=O)CCCc2ccc(NC(=O)c3ccccc3-c3ccc(C(F)(F)F)cc3)c(C(=O)N(C)C)c2)cc1` [Compound 1-93, 4-(3-dimethylcarbamoyl-4-{(4'-trifluoromethylbiphenyl-2-carbonyl)amino}phenyl)butyric acid 4-butyrylphenyl ester], the remaining at 10 min in data set [1] worked out at 4%; in data set [2], 52%; in data set [3], 107%. In addition, the results for the remaining at 1 h in data set [1], in data set [2] and in data set [3] were 0%, 0% and 109%, respectively.
Take `CN(C)C(=O)c1cc(CC(=O)Oc2ccc(F)cc2)ccc1NC(=O)c1ccccc1-c1ccc(C(F)(F)F)cc1` [Compound 1-4, {3-dimethylcarbamoyl-4-[(4'-trifluoromethylbiphenyl-2-carbonyl)amino]phenyl}acetic acid 4-fluorophenyl ester]: the remaining at 10 min in data set [1] amounted to 0%; in data set [2], 57%; in data set [3], 99%. For the same compound, the remaining at 1 h in data set [1] was determined as 0%; in data set [2] it was 5%; in data set [3], 95%.

Source of the values: patent EP1803452A1, “ESTER DERIVATIVE AND PHARMACEUTICAL USE THEREOF” (Japan Tobacco, Inc., priority 2004, dated 2006).
